Measurements reported in US6664088B2, “Production of vanillin” (Plant Bioscience Limited, priority 1996, dated 2003).
Read-outs that look alike come from different tables or passages of the source. Values belong to the molecule of their own block, whether it stands above or below them.

Legend:
[1] = test system: enzyme activities I, II and III from Ps. fluorescens biovar V, strain AN103; test: Use of cinnamates as substrates by enzyme activities I, II and III; format: biochemical, Pseudomonas fluorescens; conditions: AN103 enzymes
[2] = test system: Ps. fluorescens biovar. V, strain AN103; test: Relative growth of strain AN103 on a range of carbon substrates (absorbance at 600 nm); format: cell-based, Pseudomonas fluorescens; conditions: for activity at 10000 µM: read-out: Relative Growth (%)
Procedure: KH2PO4, 5 g; […] FeSO4, 0.5 mg; CaCl2, 0.5 mg; MnCl2.5H2O, 5 mg; (NH4)6Mo2O7.4H2O, 1.1 mg; MgSO4, 5 mg; EDTA, 50 mg; […] The pH was 7.0. Carbon sources were included as indicated. […] Growth was monitored by measuring absorbance at 550 or 600 nm. [table]

[3] = molecular target: T1, Vanillin: NAD+ oxidoreductase (Pseudomonas fluorescens, UniProt O69763); test: Vanillin:NAD+ oxidoreductase assay, decrease in absorbance at 340 nm; format: biochemical; conditions: gene expressed in E. coli strain DH5 from pUC18
T1 construct: endogenous in cells; host or cells: Ps. fluorescens AN103 / van 1 / van 10 cell-free extracts; also E. coli DH5 carrying pUC18 with the full-length ORF
T1 sequence (O69763 whole entry): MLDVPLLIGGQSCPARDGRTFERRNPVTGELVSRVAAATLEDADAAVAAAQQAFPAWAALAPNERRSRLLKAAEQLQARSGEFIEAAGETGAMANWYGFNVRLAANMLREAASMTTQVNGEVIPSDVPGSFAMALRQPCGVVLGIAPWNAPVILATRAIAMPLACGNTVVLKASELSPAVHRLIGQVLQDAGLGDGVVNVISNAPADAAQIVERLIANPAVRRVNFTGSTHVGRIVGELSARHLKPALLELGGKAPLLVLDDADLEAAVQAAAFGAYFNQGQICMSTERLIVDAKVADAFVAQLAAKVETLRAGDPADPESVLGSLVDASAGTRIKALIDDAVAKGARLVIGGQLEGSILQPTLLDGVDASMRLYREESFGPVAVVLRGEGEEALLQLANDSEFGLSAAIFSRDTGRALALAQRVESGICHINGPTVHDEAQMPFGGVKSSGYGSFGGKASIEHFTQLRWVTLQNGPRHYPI
Procedure: Vanillin: NAD^+ oxidoreductase was assayed at 30° C. and pH 7.0 by monitoring the initial decrease in absorbance at 340 nm against a blank cuvette from which NAD^+ was omitted. Because of the similarity in extinction coefficient at 340 nm for vanillin and for NADH, the sensitivity of the assay was increased by catalysing the regeneration of NADH to NAD^+ by providing lactate dehydrogenase and pyruvate. Reaction mixtures contained, in 1 ml volume, 75 mM KPi buffer, pH 7.0, 0.125 mM vanillin, 1.2 mM Na pyruvate, lactate dehydrogenase (rabbit muscle), 1.1 U and NAD^+, 0.5 mM.
In order to confirm the function of this gene, expression was determined in E. coli strain DH5, which contained the vector pUC18 into which the full-length open reading frame had been inserted such that expression was from the lac promoter on the vector. Vanillin: NAD^+ oxidoreductase activity was confirmed and was absent from a control strain bearing the unmodified pUC 18 vector. Using the enzyme assay described in Example 2, activity with vanillin as substrate was determined as 3.0 nkat/mg of protein; activity with salicylaldehyde was 2.8 nkat/mg.

[4] = test system: cell-free extract of strain AN103; test: Incubation of CoASH thioesters with cell-free extract; format: biochemical, Pseudomonas fluorescens
Procedure: (§1) Cell-free extracts were routinely incubated at 30° C. and pH 7.5 in a reaction mixture (1 ml) containing 90 mM Tris HCl buffer and 2.5 mM MgCl2, together with (as appropriate) 0.5 mM trans-ferulic acid, 0.2 mM CoASH (Li salt) and 2.5 mM ATP. This complete reaction mixture constituted an assay for trans-ferulate: CoASH ligase, where the initial increase in absorbance at 345 nm was monitored against a blank reaction mixture from which CoASH was omitted. Incubations with HMPHP SCoA (generally 0.4 mM) were performed similarly, but with the omission of trans-ferulic acid, CoASH and ATP.
Metabolites of trans-ferulic acid, including the CoASH thioesters, were analysed and quantitated by HPLC using a Lichrosorb RP-18 column (20 cm×4.6 mm; Capital HPLC, Broxburn, West Lothian, UK) with a multiphasic gradient; solvent “A” was 20 mM NaOAc, adjusted to pH 6.0 and solvent“B” was MeOH; the flow rate was 1.2 ml/min; the proportion of solvent “B” rose linearly from 0% at 0 min to 10% at 15 min and thence to 50% at 40 min and 70% at 45 min, finally decreasing to 0% at 50 min. Detection was with a Spectra Focus detector (Thermo Separation Products, Stone, Staffs. UK), which permitted u/v spectral analysis of each eluting component.

[5] = molecular target: T2, trans-feruloyl SCoA hydratase/aldol cleavage enzyme (Pseudomonas fluorescens, UniProt O69762); test: trans-feruloyl SCoA hydratase/aldol cleavage enzyme activity, reaction products by HPLC; format: biochemical; conditions: 30° C., 0.4 mM substrate, 2.8 μg enzyme partially purified by Mono-Q and Mono-P
T2 construct: Purification from cells of Ps. fluorescens biovar V, strain AN103, was; endogenous in cells; host or cells: Ps. fluorescens biovar; V strain AN103 grown on trans-ferulate (crude extract, then Mono Q, Mono P, PhenylSuperose); also crude extract of E. coli JM109(DE3) with the gene in pSP72
T2 sequence (O69762 2-276): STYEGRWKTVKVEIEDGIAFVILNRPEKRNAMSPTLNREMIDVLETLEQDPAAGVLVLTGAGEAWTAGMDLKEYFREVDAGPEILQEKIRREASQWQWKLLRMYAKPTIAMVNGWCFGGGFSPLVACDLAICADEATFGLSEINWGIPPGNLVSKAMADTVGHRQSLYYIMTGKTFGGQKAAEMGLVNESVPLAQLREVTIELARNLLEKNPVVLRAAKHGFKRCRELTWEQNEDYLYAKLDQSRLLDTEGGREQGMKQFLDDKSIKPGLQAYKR
Procedure: At each stage of purification, active fractions were detected by a micro-adaptation of the assay with HMPHP SCoA described above (Example 2); reactions were performed in 100 μl of reaction mixture for ca. 4 min at room temperature in microtitre wells and absorbance was then measured in an MR 5000 microtitre plate reader (Dynatech, Guernsey, Channel Islands), equipped with a 340 nm filter. The activity of the pooled fractions was measured using HPLC to determine the reaction products of both HMPHP SCoA, (0.4 mM) and trans-feruloyl SCoA (0.28 mM) as substrates. […] The proportionality of the reactions with time and with quantity of enzyme was established in preliminary determinations.
E. coli cells were grown at 37° C. for 3 h in 50 ml of L medium, containing ampicillin (50 μg/ml) with and without induction by IPTG. Extracts were prepared as described above in Example 2 for Ps. fluorescens AN103, but without centrifugation. The crude extract was used for assay. Enzyme activity with both HMPHP SCoA and trans-feruloyl ScoA was determined as described above in Example 4 using HPLC to determine the reaction products. […] There was no activity with either trans-feruloyl SCoA or HMPHP SCoA in extracts of an unmanipulated E. coli strain, whether induced or not. In the manipulated strain E. coli 1039 that expresses the Pseudomonas gene the specific activity was slightly lower in the exLract made following induction than in that made from uninduced bacteria. […] It was not possible to detect expression of the 31 kD protein visually on Coomassie-stained, one-dimensional SDS gels because of its co-migration with the strongly expressed β-lactamase encoded by the vector ampicillin resistance marker.

[6] = test system: trans-ferulate: CoASH ligase; test: trans-ferulate:CoASH ligase assay, initial increase in absorbance at 345 nm; format: biochemical, Pseudomonas fluorescens; conditions: crude extracts of Ps. fluorescens AN103; initial rate at absorbance maximum of the SCoA thioester
Procedure: as §1

[7] = Pseudomonas fluorescens, substrate 10 mM on MM Medium, 48 h at 25° C., absorbance at 600 nm
[8] = substrate 10 mM on MM Medium, 48 h at 25° C., absorbance at 600 nm

Use as substrate by enzyme activities I, II and III [1]: poor substrates
SMILES: O=C(O)C=Cc1ccccc1 [Cinnamic acid]
activity at 10000 µM [2, 7]: 0%

SMILES: COc1cc(/C=C/C(=O)O)cc(OC)c1O [Sinapic acid]
activity at 10000 µM [2, 7]: 0%

SMILES: O=C(O)/C=C/c1ccc(O)c(O)c1 [Caffeic acid, 3,4-dihydroxy-trans-cinnamate]
activity at 10000 µM [2, 7]: 79%

SMILES: O=C(O)c1ccc(O)c(O)c1 [Protocatechuic acid]
activity at 10000 µM ([2]; Pseudomonas fluorescens, 48 h): 77%

SMILES: O=Cc1ccccc1O [salicylaldehyde]
Activity as substrate of vanillin:NAD+ oxidoreductase [3]: 2.8 nkat/mg

SMILES: COc1cc(C(O)CC(=O)SCCNC(=O)CCNC(=O)[C@H](O)C(C)(C)COP(=O)(O)OP(=O)(O)OC[C@H]2O[C@@H](n3cnc4c(N)ncnc43)[C@H](O)[C@@H]2OP(=O)(O)O)ccc1O (stereo partly drawn) [HMPHP SCoA, 4-hydroxy-3-methoxyphenyl-β-hydroxypropionyl SCoA]
Metabolism by cell-free extract ([4]; incubated with cell-free extract, absence of NAD+): converted rapidly to acetyl SCoA and vanillin, in equimolar proportions

SMILES: COc1cc(C=CC(=O)SCCNC(=O)CCNC(=O)[C@H](O)C(C)(C)COP(=O)(O)OP(=O)(O)OC[C@H]2O[C@@H](n3cnc4c(N)ncnc43)[C@H](O)[C@@H]2OP(=O)(O)O)ccc1O (relative stereo) [Feruloyl SCoA, trans-feruloyl SCoA]
Activity, utilisation of trans-p-hydroxycinnamoyl SCoA thioester [5]: 0.60 nkat/mg of protein

SMILES: COc1cc(/C=C/C(=O)O)ccc1O [Ferulic acid, 4-hydroxy-3-methoxy-trans-cinnamate]
activity at 10000 µM [2, 7]: 100%

SMILES: CC(C)(COP(=O)(O)OP(=O)(O)OC[C@H]1O[C@@H](n2cnc3c(N)ncnc32)[C@H](O)[C@@H]1OP(=O)(O)O)[C@@H](O)C(=O)NCCC(=O)NCCSC(=O)/C=C/c1ccc(O)c(O)c1 (relative stereo) [Caffeoyl SCoA, trans-caffeoyl SCoA]
Activity, utilisation of trans-p-hydroxycinnamoyl SCoA thioester [5]: 0.36 nkat/mg of protein

SMILES: COc1cc(C(=O)SCCNC(=O)CCNC(=O)[C@H](O)C(C)(C)COP(=O)(O)OP(=O)(O)OC[C@H]2O[C@@H](n3cnc4c(N)ncnc43)[C@H](O)[C@@H]2OP(=O)(O)O)ccc1O [vanilloyl SCoA, 4hydroxy-3-methoxybenzoyl SCoA]
Metabolism to vanillin by cell-free extracts ([4]; in the presence of NADH): not to be metabolised to vanillin

SMILES: COc1cc(C(=O)O)ccc1O [Vanillic acid]
activity at 10000 µM [2, 7]: 140%

SMILES: O=Cc1ccc(O)c(O)c1 [Protocatechuic aldehyde]
Relative Growth (%) [2, 8]: 0%

SMILES: O=C(O)/C=C/c1ccc(O)cc1 [p-Coumarate, 4-hydroxy-trans-cinnamate]
Activity, formation of CoASH thioester [6]: 0.37 nkat/mg protein
Use as substrate by enzyme activities I, II and III [1]: reasonable efficiency

SMILES: COc1cc(C=O)ccc1O [Vanillin, 4-hydroxy-3-methoxybenzaldehyde]
Activity as substrate of vanillin:NAD+ oxidoreductase [3]: 3.0 nkat/mg of protein
activity at 1000 µM ([2]; Pseudomonas fluorescens, vanillin 1 mM on MM Medium, 48 h at 25° C., absorbance at 600 nm): < 100%
Effect on growth of strain AN103 ([2]; concentrations higher than the low concentrations (<1 mM)): growth-inhibitory

SMILES: CC(=O)O [Acetate]
Relative Growth (%) [2, 8]: 47%

SMILES: CO [Methanol]
activity at 10000 µM ([2]; Pseudomonas fluorescens, 48 h): 0%

SMILES: CC(C)(COP(=O)(O)OP(=O)(O)OC[C@H]1O[C@@H](n2cnc3c(N)ncnc32)[C@H](O)[C@@H]1OP(=O)(O)O)[C@@H](O)C(=O)NCCC(=O)NCCSC(=O)/C=C/c1ccc(O)cc1 (relative stereo) [p-Coumaroyl SCoA, trans-4-coumaroyl SCoA]
Activity, utilisation of trans-p-hydroxycinnamoyl SCoA thioester [5]: 0.72 nkat/mg of protein

SMILES: O=C(O)/C=C/c1ccc2c(c1)OCO2 [3,4-methylenedioxy-trans-cinnamate]
Use as substrate by enzyme activities I, II and III [1]: poor substrates
